Data as given in US8937091B2 (Japan Science and Technology Agency, priority 2009, dated 2015).

What was measured:
[1] = tested on: IICR (IP3 induced calcium release) in CHO cells; assay: Assay of IICR (IP3 induced calcium release)-inhibiting action; type: cell-based, Chinese hamster; conditions: for inhibition at 10 µM: test compound 10 μmol
Procedure, shortened: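 CHO cell medium replaced with calcium-containing BSS; compound added 1 min later, then 10 μM ATP after a further 2 min. Percent inhibition of the ATP-evoked rise in intracellular calcium determined at each compound concentration.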

[2] = tested on: SOCE (store operated calcium entry) in CHO cells; assay: Assay of SOCE (store operated calcium entry)-inhibiting action; type: cell-based, Chinese hamster; conditions: for inhibition at 10 µM: test compound 10 μmol; for inhibition at 10 µM / inhibition at 30 µM / inhibition at 100 µM: read-out: SOCE level (percentage of inhibition); for inhibition at 30 µM: test compound 30 μmol
Procedure, shortened: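 CHO cells in calcium-free BSS received compound, then 1 μM thapsigargin 2 min later to deplete stores; after 9 min, 2 mM calcium chloride (final) added. Percent inhibition of the rise in intracellular calcium determined at various compound concentrations.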

[3] = Cricetulus griseus, CHO, CHO cells, 10 μM ATP, read-out: IICR level (percentage of inhibition)
[4] = Cricetulus griseus, CHO, test compound 30 μmol, CHO cells, 10 μM ATP, read-out: IICR level (percentage of inhibition)
[5] = Cricetulus griseus, CHO, test compound 100 μmol, CHO cells, 10 μM ATP, read-out: IICR level (percentage of inhibition)
[6] = Cricetulus griseus, CHO, CHO cells, thapsigargin
[7] = Cricetulus griseus, CHO, test compound 100 μmol, CHO cells, thapsigargin
[8] = Cricetulus griseus, CHO, Table 1

SMILES	inhibition at 10 µM [1, 3] [%]	inhibition at 30 µM [1, 4] [%]	inhibition at 100 µM [1, 5] [%]	inhibition at 10 µM [2, 6] [%]	inhibition at 30 µM [2, 6] [%]	inhibition at 100 µM [2, 7] [%]	inhibition at 20 µM ([1]; Cricetulus griseus, CHO, test compound 20 μmol, CHO cells, 10 μM ATP, read-out: IICR level (percentage of inhibition)) [%]	IC50 [1, 8] [µM]	IICR level (percentage of inhibition) ([1]; test compound 30 μmol, CHO cells, 10 μM ATP) [%]	IICR level (percentage of inhibition) ([1]; test compound 100 μmol, CHO cells, 10 μM ATP) [%]	IC50 [2, 8] [µM]	SOCE level (percentage of inhibition) ([2]; test compound 100 μmol, CHO cells, thapsigargin) [%]
Cc1ccc(C(=O)CCN(C)CCO)o1 [Example 140, 2-(N-methylhydroxyethyl)aminoethyl-5-methyl-2-furylketone]	20	20	30	0	0	0	–	–	–	–	–	–
CCC(CO)(CO)NCCC(=O)c1cccc2ccccc12 [Example 141]	20	20	20	0	0	0	–	–	–	–	–	–
CCN(CCC(=O)c1ccco1)Cc1ccccc1 [Example 142, 2-(N-benzylethyl)aminoethyl-2-furylketone]	40	50	80	0	0	0	–	–	–	–	–	–
O=C(CCN(CCO)CCO)c1nccs1 [Example 143, 2-(N,N-dihydroxyethyl)aminoethyl-2-thiazolylketone]	0	50	90	0	0	10	–	–	–	–	–	–
CCN(CCC(=O)c1cccnc1)Cc1ccccc1 [Example 144, 2-(N-benzylethyl)aminoethyl-3-pyridylketone]	30	40	50	0	0	0	–	–	–	–	–	–
Cc1ccc(C(=O)CCN(CCO)CCO)o1 [Example 145, 2-(N-bishydroxyethyl)aminoethyl-5-methyl-2-furylketone]	50	30	30	0	10	20	–	–	–	–	–	–
Cc1ccc(C(=O)CCN(CCO)C(C)C)o1 [Example 146, 2-(N-isopropylhydroxyethyl)aminoethyl-5-methyl-2-furylketone]	50	30	90	0	0	0	–	–	–	–	–	–
O=C(CCN(CCO)CCO)c1ccc2ccccc2c1 [Example 147, 2-(N-bishydroxyethyl)aminoethyl-2-naphthylketone]	20	60	90	0	0	0	–	–	–	–	–	–
COc1ccc(C(=O)CCN(CCO)CCO)cc1 [Example 148, 2-(N-bishydroxyethyl)aminoethyl-4-methoxyphenylketone]	20	30	90	0	0	0	–	–	–	–	–	–
O=C(CCN(CCO)CCO)c1cccs1 [Example 149, 2-(N-dihydroxyethyl)aminoethylthiophenylketone]	20	20	80	0	0	0	–	–	–	–	–	–
O=C(CCN(CCO)CCO)c1cccnc1 [Example 150, 2-(N-bishydroxyethyl)aminoethyl-3-pyridylketone]	30	20	50	0	0	10	–	–	–	–	–	–
CC(C)N(CCO)CCC(=O)c1cnccn1 [Example 151, 2-(N-isopropylhydroxyethyl)aminoethyl-2-pyrazylketone]	20	20	50	0	0	0	–	–	–	–	–	–
Cc1ccc(C(=O)CCNCc2ccccc2)o1 [Example 152, 2-(N-benzyl)aminoethyl-5-methyl-2-furylketone]	20	10	30	0	10	30	–	–	–	–	–	–
CC(C)N(CCO)CCC(=O)c1ccco1 [Example 153, 2-(N-hydroxyethylisopropyl)aminoethyl-2-furylketone]	–	–	–	0	0	–	50	20	60	80	> 100	10
CC(C)N(CCO)CCC(=O)c1ccccn1 [Example 154, 2-(N-hydroxyethylisopropyl)aminoethyl-2-pyridylketone]	40	20	80	0	0	0	–	–	–	–	–	–
CC(C)N(CCO)CCC(=O)c1ccncc1 [Example 155, 2-(N-hydroxyethylisopropyl)aminoethyl-4-pyridylketone]	20	50	80	0	0	0	–	–	–	–	–	–
CC(C)N(CCO)CCC(=O)c1nccs1 [Example 156, 2-(N-hydroxyethylisopropyl)aminoethyl-2-thiazolylketone]	20	30	60	0	10	20	–	–	–	–	–	–
CC(CN(CCO)C(C)C)C(=O)c1ccc(F)cc1 (centres unmarked) [Example 157, 1-methyl-2-(N-hydroxyethylisopropyl)aminoethyl-4-fluorophenylketone]	0	0	0	0	0	0	–	–	–	–	–	–
CC(C)N(CCO)CCC(=O)c1cccnc1 [Example 158, 2-(N-isopropylhydroxyethyl)aminoethyl-3′-pyridylketone]	30	20	20	0	0	0	–	–	–	–	–	–
CC(CN(CCO)Cc1ccccc1)C(=O)c1ccc(F)cc1 (centres unmarked) [Example 159, 2-(N-hydroxyethylbenzyl)amino-1-methylethyl-4-fluorophenylketone]	0	0	20	0	0	20	–	–	–	–	–	–
CC(CN(CCO)CCO)C(=O)c1ccc(F)cc1 (centres unmarked) [Example 160, 2-(N-bis(hydroxyethyl))amino-1-methylethyl-4-fluorophenylketone]	0	0	20	0	20	60	–	–	–	–	–	–
CC(CN(CCO)C(C)(C)C)C(=O)c1ccc(F)cc1 (centres unmarked) [Example 161, 2-(N-hydroxyethyl-t-butyl)amino-1-methylethyl-4-fluorophenylketone]	0	0	20	0	0	20	–	–	–	–	–	–
CC(CN(Cc1ccccc1)C(C)(C)C)C(=O)c1ccc(F)cc1 (centres unmarked) [Example 162, 2-(N-t-butylbenzyl)amino-1-methylethyl-4-fluorophenylketone]	0	0	0	0	0	40	–	–	–	–	–	–
CC(CN(C)CCO)C(=O)c1ccc(F)cc1 (centres unmarked) [Example 163, 2-(N-hydroxyethylmethyl)amino-1-methylethyl-4-fluorophenylketone]	0	0	0	0	0	20	–	–	–	–	–	–
Cn1cccc1C(=O)CCN(CCO)Cc1ccccc1 [Example 164, 2-(N-benzyl-2-hydroxyethyl)aminoethyl-2-(N-methylpyrrolyl)ketone]	0	0	40	0	0	10	–	–	–	–	–	–
Cn1cccc1C(=O)CCN(Cc1ccccc1)C(C)(C)C [Example 165, 2-(N-benzyl-t-butyl)aminoethyl-2-(N-methylpyrrolyl)ketone]	0	0	0	0	0	0	–	–	–	–	–	–
CC(C)N(CCO)CCC(=O)c1ccc(F)cc1 [Example 166, 2-(N-hydroxyethylisopropyl)aminoethyl-4-fluorophenylketone]	0	0	0	0	0	20	–	–	–	–	–	–
